Patent US20240158446A1, “CYCLIC COMPOUND HAVING SELECTIVE INHIBITORY ACTION ON KRAS OVER HRAS AND NRAS” (CHUGAI SEIYAKU KABUSHIKI KAISHA, priority 2021, published 2024)

Columns and labels:
[1] = molecular target: GDP-bound NRAS wild-type protein (Homo sapiens, UniProt P01111); assay: Binding to NRAS by surface plasmon resonance (SPR), Single Cycle Kinetics; settings: for NRAS/KRAS (ratio of KD value with respect to GDP-bound NRAS wild-type protein to KD value with respect to KRAS): SPR KD ratio NRAS/KRAS, class symbols
[2] = molecular target: GDP-bound HRAS wild-type protein (Homo sapiens, UniProt P01112); assay: Binding to HRAS by surface plasmon resonance (SPR), Single Cycle Kinetics; settings: for HRAS/KRAS (ratio of KD value with respect to GDP-bound HRAS wild-type protein to KD value with respect to KRAS): SPR KD ratio HRAS/KRAS, class symbols
[3] = SPR, GDP-bound NRAS wild-type protein vs GDP-bound KRAS wild-type protein
[4] = SPR, GDP-bound HRAS wild-type protein vs GDP-bound KRAS wild-type protein
[5] = SPR, GDP-bound NRAS wild-type protein vs GDP-bound KRAS wild-type protein, KD ratio class
[6] = SPR, GDP-bound HRAS wild-type protein vs GDP-bound KRAS wild-type protein, KD ratio class

Sequence of GDP-bound HRAS wild-type protein (P01112 whole entry): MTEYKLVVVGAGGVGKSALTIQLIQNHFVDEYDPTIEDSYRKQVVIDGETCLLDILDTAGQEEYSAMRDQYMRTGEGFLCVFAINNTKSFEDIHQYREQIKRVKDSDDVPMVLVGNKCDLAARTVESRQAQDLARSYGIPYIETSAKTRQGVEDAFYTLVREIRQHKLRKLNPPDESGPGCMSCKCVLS
Sequence of GDP-bound NRAS wild-type protein (P01111 whole entry): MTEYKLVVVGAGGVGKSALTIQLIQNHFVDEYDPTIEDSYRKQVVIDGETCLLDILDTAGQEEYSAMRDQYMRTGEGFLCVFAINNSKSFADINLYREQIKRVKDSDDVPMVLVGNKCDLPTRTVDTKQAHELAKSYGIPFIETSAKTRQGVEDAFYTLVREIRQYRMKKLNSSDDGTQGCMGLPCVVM

Row | Compound | NRAS/KRAS (ratio of KD value for NRAS to KD value for KRAS) [1, 3] | HRAS/KRAS (ratio of KD value for HRAS to KD value for KRAS) [2, 4] | NRAS/KRAS (ratio of KD value with respect to GDP-bound NRAS wild-type protein to KD value with respect to KRAS) [1] | HRAS/KRAS (ratio of KD value with respect to GDP-bound HRAS wild-type protein to KD value with respect to KRAS) [2] | other results
1 | CC[C@H](C)[C@@H]1NC(=O)[C@H](CC(C)C)N(C)C(=O)C[C@@H](C(=O)N2CCOCC2)N(C)C(=O)[C@H](C2CCCC2)N(C)C(=O)C2(CCC2)NC(=O)[C@@H]2[C@@H](OCC3CC3)CCN2C(=O)[C@H](CCc2cc(F)c(C(F)(F)F)c(F)c2)NC(=O)CN(C)C(=O)[C@H](Cc2ccc(C(F)(F)F)cc2)N2CCCCC[C@@H](C2=O)N(C)C(=O)CN(C)C1=O [PP1010] | B (a compound having 3 or more and less than 10 is denoted as B) | B (a compound having 3 or more and less than 10 is denoted as B) | – | – | –
2 | CCC[C@H]1C(=O)N[C@@H]([C@@H](C)CC)C(=O)N(C2CC2)CC(=O)N(C)[C@H]2C/C=C\CCN(C2=O)[C@@H](Cc2ccc(C)cc2)C(=O)N(C)CC(=O)N[C@@H](CCc2cc(F)c(CC)c(OC)c2)C(=O)N2C[C@H](OCC)C[C@H]2C(=O)NC2(CC(C)(C)C2)C(=O)N(C)[C@@H](C2CCCC2)C(=O)N(C)[C@H](C(=O)N(C)C)CC(=O)N1C [PP2872] | – | – | A (a compound having 10 or more and less than 20 is denoted as A) | A (a compound having 10 or more and less than 20 is denoted as A) | –
3 | CC[C@H](C)[C@@H]1NC(=O)[C@H](CC(C)C)N(C)C(=O)C[C@@H](C(=O)N2CCOCC2)N(C)C(=O)[C@H](C2CCCC2)N(C)C(=O)C2(CCC2)NC(=O)[C@@H]2[C@@H](O)CCN2C(=O)[C@H](CCc2cc(F)c(C(F)(F)F)c(F)c2)NC(=O)CN(C)C(=O)[C@H](Cc2ccc(C(F)(F)F)cc2)N2CCCCC[C@@H](C2=O)N(C)C(=O)CN(C)C1=O [PP0872] | A (a compound having 10 or more and less than 20 is denoted as A) | A (a compound having 10 or more and less than 20 is denoted as A) | – | – | –
4 | CCO[C@@H]1C[C@H]2C(=O)NC3(CC(C)(C)C3)C(=O)N(C)[C@@H](C3CCCC3)C(=O)N(C)[C@H](C(=O)N(C)C)CC(=O)N(C)[C@@H](CC(C)C)C(=O)N[C@@H]([C@@H](C)CC)C(=O)N(C)CC(=O)N(C)[C@H]3C/C=C\CCN(C3=O)[C@@H](Cc3ccc(C)cc3F)C(=O)N(C)CC(=O)N[C@@H](CCc3ccc(C(F)(F)F)c(OC)c3)C(=O)N2C1 [PP2688] | – | – | A (a compound having 10 or more and less than 20 is denoted as A) | B (a compound having 3 or more and less than 10 is denoted as B) | –
5 | CCC[C@H]1C(=O)N[C@@H](C2CCCC2)C(=O)N(C)CC(=O)N(C)[C@H]2C/C=C\CCN(C2=O)[C@@H](Cc2ccc(C)cc2)C(=O)N(C)CC(=O)N[C@@H](CCc2ccc(C(F)(F)F)c(Cl)c2)C(=O)N2C[C@H](OCC)C[C@H]2C(=O)NC2(CC(C)(C)C2)C(=O)N(C)[C@@H](CC(C)C)C(=O)N(C)[C@H](C(=O)N(C)C)CC(=O)N1C [PP2190] | A (a compound having 10 or more and less than 20 is denoted as A) | A (a compound having 10 or more and less than 20 is denoted as A) | – | – | –
6 | CCO[C@@H]1C[C@H]2C(=O)NC3(CCC3)C(=O)N(C)[C@@H](C3CCCC3)C(=O)N(CCC3CCC3)[C@H](C(=O)N3CCOCC3)CC(=O)N(C)[C@@H](CC(C)C)C(=O)N[C@@H]([C@@H](C)CC)C(=O)N(C)CC(=O)N(C)[C@H]3CCCCCN(C3=O)[C@@H](Cc3ccc(C(F)(F)F)cc3)C(=O)N(C)CC(=O)N[C@@H](CCc3cc(F)c(C(F)(F)F)c(F)c3)C(=O)N2C1 [PP0640] | – | – | – | – | NRAS/KRAS (ratio of KD value with respect to NRAS to KD value with respect to KRAS) [1, 3]: B (a compound having 3 or more and less than 10 is denoted as B); HRAS/KRAS (ratio of KD value with respect to HRAS to KD value with respect to KRAS) [2, 4]: B (a compound having 3 or more and less than 10 is denoted as B)
7 | CCC[C@H]1C(=O)N[C@@H]([C@@H](C)CC)C(=O)N(C)CC(=O)N(C)[C@H]2C/C=C\CCN(C2=O)[C@@H](Cc2ccc(C)cc2)C(=O)N(C)CC(=O)N[C@@H](CCc2ccc3c(C)cn(C)c3c2)C(=O)N2C[C@H](OCC)C[C@H]2C(=O)NC2(CC(C)(C)C2)C(=O)N(C)[C@@H](C(CC)CC)C(=O)N(C)[C@H](C(=O)N(C)C)CC(=O)N1C [PP2910] | – | – | AA (a compound having 20 or more is denoted as AA) | A (a compound having 10 or more and less than 20 is denoted as A) | –
8 | CC[C@H](C)[C@@H]1NC(=O)[C@H](CC(C)C)N(C)C(=O)C[C@@H](C(=O)N2C[C@@H](C)O[C@@H](C)C2)N(C)C(=O)[C@H](C2CCCC2)N(C)C(=O)C2(CCCC2)NC(=O)[C@@H]2CCCN2C(=O)[C@H](CCc2ccc(C(F)(F)F)c(Cl)c2)NC(=O)CN(C)C(=O)[C@H](Cc2ccc(F)cc2)N2CCCCC[C@@H](C2=O)N(C)C(=O)CN(C)C1=O [PP1151] | B (a compound having 3 or more and less than 10 is denoted as B) | B (a compound having 3 or more and less than 10 is denoted as B) | – | – | –
9 | CCO[C@@H]1C[C@H]2C(=O)NC3(CC(C)(C)C3)C(=O)N(C)[C@@H](C3CCCC3)C(=O)N(C)[C@H](C(=O)N(C)C)CC(=O)N(C)[C@@H](CC(C)C)C(=O)N[C@@H]([C@@H](C)CC)C(=O)N(C)CC(=O)N(C)[C@H]3C/C=C\CCN(C3=O)[C@@H](Cc3ccc(C(C)=O)cc3)C(=O)N(C)CC(=O)N[C@@H](CCc3ccc(C(F)(F)F)c(OC)c3)C(=O)N2C1 [PP2694] | – | – | A (a compound having 10 or more and less than 20 is denoted as A) | B (a compound having 3 or more and less than 10 is denoted as B) | –
10 | CCO[C@@H]1C[C@H]2C(=O)NC3(CCC3)C(=O)N(C)[C@@H](C(CC)CC)C(=O)N(C)[C@H](C(=O)N3CCOCC3)CC(=O)N(C)[C@@H](CC3CC3)C(=O)N[C@@H]([C@@H](C)CC)C(=O)N(C)CC(=O)N(C)[C@H]3C/C=C\CCN(C3=O)[C@@H](Cc3ccc(F)cc3)C(=O)N(C)CC(=O)N[C@@H](CCc3cc(F)c(C(F)(F)F)c(F)c3)C(=O)N2C1 [PP1527] | – | – | – | – | NRAS/KRAS (ratio of KD value for NRAS to KD value for KRAS) [1, 5]: A (a compound having 10 or more and less than 20 is denoted as A); HRAS/KRAS (ratio of KD value for HRAS to KD value for KRAS) [2, 6]: A (a compound having 10 or more and less than 20 is denoted as A)
11 | CCO[C@@H]1C[C@H]2C(=O)NC3(CCC3)C(=O)N(C)[C@@H](C(CC)CC)C(=O)N(C)[C@H](C)CC(=O)N(C)[C@@H](CC(C)C)C(=O)N[C@@H]([C@@H](C)CC)C(=O)N(C)CC(=O)N(C)[C@H]3C/C=C\CCN(C3=O)[C@@H](Cc3ccc(F)cc3)C(=O)N(C)CC(=O)N[C@@H](CCc3cc(F)c(C(F)(F)F)c(F)c3)C(=O)N2C1 [PP1525] | – | – | – | – | NRAS/KRAS (ratio of KD value for NRAS to KD value for KRAS) [1, 5]: A (a compound having 10 or more and less than 20 is denoted as A); HRAS/KRAS (ratio of KD value for HRAS to KD value for KRAS) [2, 6]: A (a compound having 10 or more and less than 20 is denoted as A)
12 | CCC[C@H]1C(=O)N[C@@H](C2CCCC2)C(=O)N(C)CC(=O)N(C)[C@H]2C/C=C\CCN(C2=O)[C@@H](Cc2ccc(C)cc2)C(=O)N(C)CC(=O)N[C@@H](CCc2ccc(C(F)(F)F)c(OC)c2)C(=O)N2C[C@H](OCC)C[C@H]2C(=O)NC2(CC(C)(C)C2)C(=O)N(C)[C@@H](CC(C)(C)C)C(=O)N(C)[C@H](C(=O)N(C)C)CC(=O)N1C [PP3005] | A (a compound having 10 or more and less than 20 is denoted as A) | B (a compound having 3 or more and less than 10 is denoted as B) | – | – | –
13 | CCCOC[C@H]1C(=O)N[C@@H]([C@@H](C)CC)C(=O)N(C2CC2)CC(=O)N(C)[C@H]2C/C=C\CCN(C2=O)[C@@H](Cc2ccc(C(F)(F)F)cc2)C(=O)N(C)CC(=O)N[C@@H](CCc2ccc(C(F)(F)F)c(OC)c2)C(=O)N2C[C@H](OCC)C[C@H]2C(=O)N(C)C2(CCC2)C(=O)N(C)[C@@H](C2CCCC2)C(=O)N(C)[C@H](C(=O)N(C)C)CC(=O)N1C [PP2318] | A (a compound having 10 or more and less than 20 is denoted as A) | A (a compound having 10 or more and less than 20 is denoted as A) | – | – | –
14 | CCC[C@H]1C(=O)N[C@@H]([C@@H](C)CC)C(=O)N(C)CC(=O)N(C)[C@H]2C/C=C\CCN(C2=O)[C@@H](Cc2ccc(C(F)(F)F)cc2)C(=O)N(C)CC(=O)N[C@@H](CCc2ccc(C(F)(F)F)c(Cl)c2)C(=O)N2CC3(CC3)C[C@H]2C(=O)NC2(CC(C)(C)C2)C(=O)N(C)[C@@H](CC(F)(F)F)C(=O)N(C)[C@H](C(=O)N(C)C)CC(=O)N1C [PP2985] | AA (a compound having 20 or more is denoted as AA) | A (a compound having 10 or more and less than 20 is denoted as A) | – | – | –
15 | CCC[C@H]1C(=O)N[C@@H]([C@@H](C)CC)C(=O)N(C)CC(=O)N(C)[C@H]2C/C=C\CCN(C2=O)[C@@H](Cc2ccc(C)cc2)C(=O)N(C)CC(=O)N[C@@H](CCc2cc(Cl)c3sccc3c2)C(=O)N2C[C@H](OCC)C[C@H]2C(=O)NC2(CC(C)(C)C2)C(=O)N(C)[C@@H](C2CCCC2)C(=O)N(C)[C@H](C(=O)N(C)C)CC(=O)N1C [PP2947] | – | – | B (a compound having 3 or more and less than 10 is denoted as B) | B (a compound having 3 or more and less than 10 is denoted as B) | –
16 | CCO[C@@H]1C[C@H]2C(=O)NC3(CCC3)C(=O)N(C)[C@@H](C3CCCC3)C(=O)N(C)[C@H](C)CC(=O)N(C)[C@@H](CC(C)C)C(=O)N[C@@H]([C@@H](C)CC)C(=O)N(C)CC(=O)N(C)[C@H]3C/C=C\CCN(C3=O)[C@@H](Cc3ccc(F)cc3)C(=O)N(C)CC(=O)N[C@@H](CCc3cc(F)c(C(F)(F)F)c(F)c3)C(=O)N2C1 [PP1494] | – | – | – | – | NRAS/KRAS (ratio of KD value for NRAS to KD value for KRAS) [1, 5]: B (a compound having 3 or more and less than 10 is denoted as B); HRAS/KRAS (ratio of KD value for HRAS to KD value for KRAS) [2, 6]: B (a compound having 3 or more and less than 10 is denoted as B)
